According to PMC2990756, “Quantitative High-Throughput Screening Identifies 8-Hydroxyquinolines as Cell-Active Histone Demethylase Inhibitors” (PLoS ONE, 2010):

Assays:
JMJD2E [1] = biological target: T1, JMJD2E (Homo sapiens, UniProt B2RXH2); experiment: MALDI-TOF MS demethylation assay, JMJD2E; conditions: Table S1; for MALDI-TOF Data: Span: span of the fitted curve; for MALDI-TOF Data: Span / IC50: 2 µM JMJD2E; for IC50: read-out: MALDI-TOF Data: IC50, unit not in table, ~ values are poorly fitted
T1 sequence (B2RXH2 1-337): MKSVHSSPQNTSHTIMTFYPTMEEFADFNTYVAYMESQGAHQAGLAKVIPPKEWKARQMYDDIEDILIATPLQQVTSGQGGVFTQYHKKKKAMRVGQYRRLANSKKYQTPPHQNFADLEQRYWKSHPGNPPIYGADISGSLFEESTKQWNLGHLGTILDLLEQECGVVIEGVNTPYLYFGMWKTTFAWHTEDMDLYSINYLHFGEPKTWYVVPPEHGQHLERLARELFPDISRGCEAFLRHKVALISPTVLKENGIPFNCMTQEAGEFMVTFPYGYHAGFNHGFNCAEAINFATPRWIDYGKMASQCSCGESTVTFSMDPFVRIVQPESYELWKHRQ
Method: Initially, JMJD2, Fe(II), ascorbate and inhibitors were pre-incubated for 15 min prior to the addition of peptide and 2OG. The reaction was incubated for 30 min before 1∶1 quenching with methanol followed by addition of four volumes of 20 mM triammonium citrate. […] The diluted assay mixture (1 µL) from JMJD2 and PHD2 assays were mixed with 1 µL of α-cyano-4-hydroxycinnamic acid and 1 µL of FIH assay mixture was mixed with 1 µL of sinapinic acid matrix, and assessed by matrix-assisted laser desorption/ionization-time of flight (MALDI-TOF).

JMJD2E (KDM4E) = biological target: T2, JMJD2E (KDM4E) (Homo sapiens, UniProt B2RXH2); experiment: qHTS fluorescence FDH-coupled JMJD2E demethylase assay; format: biochemical; conditions: Table S1; unit not in table, from Figure 2; read-out: qHTS Data: jmjd2e IC50
T2 construct: The catalytic domain of human JMJD2E (residues 1–337); His6 (N); made in house; host or cells: E. coli
T2 sequence (B2RXH2 1-337): T1 sequence (B2RXH2 1-337)
From the text: The oxidation of formaldehyde is coupled to the reduction of NAD^+ to NADH, which is monitored by fluorescence spectroscopy. […] To this end, initial screening hits were filtered by a combination of cheminformatics (to exclude low-confidence inhibitors and autofluorescent false positives), counterscreening against the coupled-assay component formaldehyde dehydrogenase (FDH), and orthogonal direct detection of inhibition of demethylation by mass spectrometry ( Figure 1 ).
Reactions were initiated with 1 µL addition of peptide substrate solution containing final concentrations of 10 µM FAS, 50 µM 2OG, 0.25 U/mL FDH, 0.25 mM NAD^+, and 50 µM peptide substrate (ARK(me3)STGGK). A ViewLux imager (PerkinElmer, Waltham, MA) was used to measure NADH fluorescence (λex 340 nm, λem 450 nm) immediately after substrate addition and following 30 min incubation at room temperature. To record any systematic drifts in assay behavior (signal window and noise), assay plates containing no library compounds but only DMSO as a vehicle control were tested periodically (every ∼60 plates) throughout the screen.
Data were normalized to the basal response (0% activity) in the absence of enzyme and the maximal response (100% activity) in the absence of compound. Using the Hill equation, dose-response curves and IC50 values were automatically generated for each compound tested with software developed internally (www.ncgc.nih.gov/pub/openhts/curvefit/). […] The initial well fluorescence (first kinetic read) associated with each sample was stored in a database and used in the cheminformatics analysis to identify autofluorescent compounds interfering with the assay signal.

[2] = biological target: T3, formaldehyde dehydrogenase (FDH) (Pseudomonas putida, UniProt P46154); experiment: FDH coupling enzyme counterscreen; format: biochemical; conditions: Table S1, FDH counterscreen; for IC50: unit not in table, from Figure 2, read-out: qHTS Data: jmjd2e fdh IC50
T3 construct: purchased Sigma-Aldrich
T3 sequence (P46154 whole entry): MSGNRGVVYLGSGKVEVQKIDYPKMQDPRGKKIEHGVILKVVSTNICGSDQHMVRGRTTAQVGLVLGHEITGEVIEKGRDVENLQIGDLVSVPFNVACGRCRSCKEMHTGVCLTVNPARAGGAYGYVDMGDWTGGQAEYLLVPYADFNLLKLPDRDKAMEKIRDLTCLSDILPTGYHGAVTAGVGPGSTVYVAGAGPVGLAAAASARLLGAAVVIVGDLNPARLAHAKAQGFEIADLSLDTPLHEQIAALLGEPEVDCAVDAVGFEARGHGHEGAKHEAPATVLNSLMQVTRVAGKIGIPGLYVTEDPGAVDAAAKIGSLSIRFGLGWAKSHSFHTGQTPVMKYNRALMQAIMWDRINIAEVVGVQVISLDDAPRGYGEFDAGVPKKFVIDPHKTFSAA
From the text: Dimethylsulfoxide certified ACS grade (DMSO) was from Fisher, Inc. HEPES buffer was obtained from Gibco. […] Black solid-bottom 1,536-well assay plates were from Greiner Bio-One (Monroe, NC).

JMJD2E [3] = biological target: T1, JMJD2E; experiment: JMJD2E FDH-coupled assay under low and high iron conditions (iron chelation profile); format: biochemical; set-up: The catalytic domain of human JMJD2E (residues 1–337); His6 (N); made in house; host or cells: E. coli; conditions: Table S1; for IC50: unit not in table, from Figure 2
Method: The prioritized compounds were also evaluated in the screening assay using two different ferrous ion concentrations (termed high iron and low iron, respectively), in order to assess their propensity for iron chelation.
The ratio of IC50 values under high iron to low iron was calculated for each compound.

[4] = high iron, head says 20 µM FAS, read-out: qHTS Data: jmjd2e fas20um IC50
[5] = low iron 2.5 µM FAS, read-out: qHTS Data: jmjd2e fas2.5um IC50

Row | Compound | MALDI-TOF Data: Span (JMJD2E [1]) | IC50 (JMJD2E [1]) | IC50 (JMJD2E (KDM4E)) | qHTS Data: jmjd2e fdh CurveClass [2] | IC50 (JMJD2E [3]; [4]) | IC50 (JMJD2E [3]; [5]) | qHTS Data: jmjd2e fas20um CurveClass (JMJD2E [3]; high iron) | IC50 [2] | qHTS Data: jmjd2e fas2.5um Curve comment (JMJD2E [3]; low iron 2.5 µM FAS) | MALDI-TOF Data: Comments (JMJD2E [1])
1 | CN1CCN(Cc2cc(COCc3ccccc3)c3cccnc3c2O)CC1 [compound 4248346] | 96.1 | 17.2 µM | 8.91 µM | Inactive | 8.91 µM | 7.08 µM |  |  |  | 
2 | CCCCc1ccc(C(=O)O)nc1 [compound 11111188] | ~ 5848 |  | 3.98 µM | Inactive | 1.58 µM | 3.55 µM |  |  |  | 
3 | O=c1c(O)c(-c2cc(O)c(O)c(O)c2)oc2cc(O)cc(O)c12 [compound 11111488] | 95.03 |  |  | Inactive |  |  | Poor quality curve |  |  | 
4 | C[C@@](Cc1ccc(O)c(O)c1)(NN)C(=O)O [compound 11113507] | 95.69 | 5.6 µM | 3.55 µM | Inactive | 14.1 µM | 3.55 µM |  |  |  | 
5 | O=c1cc(-c2ccccc2)oc2cc(O)c(O)c(O)c12 [compound 11114203] | 89.05 | 5.8 µM | 0.89 µM | Inactive | 8.91 µM | 2.24 µM |  |  |  | 
6 | c1cnc2c(c1)ccc1cccnc12 [compound 11533040] | 93.01 | ~26.5 µM | 0.25 µM | Inactive | 3.98 µM | 10 µM |  |  |  | 
7 | Oc1ccc(NCc2ccccc2OCc2ccccc2F)cc1 [compound 17385881] | 3.087 |  | 5.01 µM | Poor quality curve | 8.91 µM | 8.91 µM |  | 14.1 µM |  | 
8 | CCOc1cc(CNc2ccc(N3CCCCC3)cc2)cc(Br)c1OCC(=O)NC(C)(C)C [compound 22412645] | ~ 104.5 |  | 3.16 µM | Inactive | 3.16 µM | 39.8 µM |  |  | Inconclusive | 
9 | CCOc1c(Cl)cc(CNc2ccc(N3CCCC3)cc2)cc1OC [compound 24795526] | ~ 11904 |  | 8.91 µM | Inactive | 19.9 µM | 3.98 µM | Poor quality curve |  |  | 
10 | O=c1nc(N/N=C/c2ccccn2)cn[nH]1 [compound 24822918] | 97.61 | ~7.05 µM | 10 µM | Inconclusive | 15.8 µM | 7.08 µM |  |  |  | 
11 | O=c1c2ccccc2sn1-c1nccs1 [compound 24830882] | 82.19 | 10.2 µM | 7.94 µM | Inactive | 3.98 µM | 7.94 µM |  |  |  | 
12 | COc1cccc(/C=N/NC(=O)CNC(=O)COc2cccc(C)c2)c1O [compound 26660958] | 89.52 | 10.2 µM | 2.82 µM | Inactive |  | 4.47 µM | Inconclusive |  |  | 
13 | COc1cccc(/C=N/NC(=O)CNC(=O)CCc2ccccc2)c1O [compound 26660959] | 88.08 | 8.6 µM | 3.98 µM | Inconclusive | 12.6 µM | 7.08 µM |  | 39.8 µM |  | 
14 | C(=N\Nc1nc(-c2ccccn2)nc2ccccc12)/c1ccccc1 [compound 26666061] |  |  | 8.91 µM | Inactive | 10 µM | 22.4 µM |  |  |  | solubility problems
15 | C=CCn1c(SCC(=O)c2ccc(O)c(O)c2)nnc1-c1cccnc1 [compound 26671532] | 91.73 | 11.8 µM | 3.55 µM | Poor quality curve | 1.26 µM | 7.94 µM |  | 14.1 µM |  | 
16 | COc1ccc(/C=C/C(=O)NC(=S)NNC(=O)c2cnccn2)cc1 [compound 26725781] | 94.6 | 3.5 µM | 7.94 µM | Inactive | 8.91 µM | 10 µM |  |  |  | 
17 | Nc1ccc2nc3c(=O)n(CCc4ccccc4)c(=O)[nH]c3nc2c1 [compound 26726384] | 51.81 | 141 µM | 1.78 µM | Inactive | 14.1 µM | 7.08 µM |  |  | Poor quality curve | 
18 | CN(C)C1C(=O)C(C(N)=O)=C(O)[C@@]2(O)C(=O)C3=C(O)c4c(O)cccc4[C@@](C)(O)C3[C@H](O)C12 (stereo partly drawn) [compound 50105558] | 94.16 | 54.8 µM | 2 µM | Poor quality curve | 8.91 µM | 14.1 µM |  | 3.55 µM |  | 
19 | Br.Oc1ccc(C2CNCCc3c2cc(O)c(O)c3Cl)cc1 (stereo not drawn) [compound 50106351] | 93.35 | 8.4 µM | 25.1 µM | Inactive | 7.94 µM | 6.31 µM |  |  |  | 
20 | NC(Cc1cc(O)c(O)cc1O)C(=O)O (stereo not drawn) [compound 50106437] |  |  | 12.6 µM | Inactive | 2.24 µM | 7.94 µM |  |  |  | solubility problems
21 | CC1(C)CCC2=C(O1)c1ccccc1C(=O)C2=O [compound 50106535] | 91.75 | 28.6 µM | 3.55 µM |  |  |  |  |  |  | 
22 | O=c1c(O)c(Br)ccc2c(Br)c(O)c(O)c(O)c12 [compound 50110019] |  |  | 7.08 µM | Poor quality curve |  | 5.01 µM | Inconclusive | 28.2 µM |  | 
